Test results published in patent US20240009314A1, “COMPOSITIONS AND METHODS FOR TARGETING TUMOR-ASSOCIATED MACROPHAGES” (Resolute Science, priority 2020, published 2024).

What was measured:
[1] = tested on: MC38 tumor cells; experiment: Anti-tumor activity in MC38 colon cancer mouse model; format: in vivo; details: 40 mg/kg intraperitoneally q3 days×4
Experimental: Specifically, 8- to 12-week-old C57BL/6 female mice (Charles River Laboratories) were inoculated with 5×10^5 MC38 tumor cells in 0% Matrigel subcutaneously in the flank in a volume of 0.1 mL/mouse on Study Day 0. A pair match was performed when the tumors reached an average size of 80-120 mm 3 at which time treatment began.
The dosing volume was adjusted for body weight. Gemcitabine was administered at a dosage of 40 mg/kg and delivered intraperitoneally q3 days×4. Tumor was measured by calipers twice a week. Body weight was measured every day for 5 days and then bi-weekly to the end of the study. (n=10/group). The endpoint of study was when tumor volume reached 1500 mm^3.

[2] = tested on: GL261 cells; experiment: Anti-tumor activity in immunocompetent GL261 glioma mouse model; format: in vivo
Experimental: The anti-tumor activity of Target-5 was assessed in vivo using an immunocompetent glioma mouse model. Three distinct doses of Target-5 were evaluated against Temozolomide, an FDA-approved chemotherapeutic agent, and a vehicle control in C57BL/6 mice.
Specifically, female C57BL/6 mice (Jackson Laboratories) were inoculated with 5×10^6 GL261 cells (mycoplasma tested-negative) with 96% viability and 100% tumor take rate (cell passages prior to plating (#7)).
Target-5 was formulated in 0.9% saline and the mice were treated twice a week with either 5 mg/kg, 7.5 mg/kg, or 10 mg/kg Target-5 by tail vein injection. The dosing volume was adjusted for body weight. Temozolomide was formulated in 10% DMSO in 0.9% sodium chloride and mice were treated twice a week by gavage at a dosage of 12.5 mg/kg. n=10 for each group.

Row | Structure (SMILES) | tumor volume compared to Target-5 groups [1] | change in body weight ([2]; any treatment group, FIG. 8C) | Mean tumor volume ([2]; day 21, 12.5 mg/kg twice a week by gavage)
1 | Nc1ccn([C@@H]2O[C@H](CO)[C@@H](O)C2(F)F)c(=O)n1 [Gemcitabine] | appeared to reduce tumor volume more |  | 
2 | Cn1nnc2c(C(N)=O)ncn2c1=O [temozolomide] |  | no significant change | 302.6 mm^3
